Test results taken from patent US20240180881A1, “METHODS FOR DECREASING RESISTANCE TO CHEMOTHERAPY” (National Institute of Immunology, priority 2022, published 2024).

How the values were obtained:
[1] = biological target: T1, BLM-RAD54 interaction (BLM F2 and N-RAD54 F1) (Homo sapiens, UniProt Q92698); test: Renilla luciferase-based protein complementation assay (PCA); type: cell-based; conditions: disruption of BLM F2 / N-RAD54 F1 interaction, HEK293T cells, 1 nM to 100 μM; read-out: EC50
T1 construct: expressed in transfected cells; host or cells: HEK293T
T1 sequence (Q92698 1-212): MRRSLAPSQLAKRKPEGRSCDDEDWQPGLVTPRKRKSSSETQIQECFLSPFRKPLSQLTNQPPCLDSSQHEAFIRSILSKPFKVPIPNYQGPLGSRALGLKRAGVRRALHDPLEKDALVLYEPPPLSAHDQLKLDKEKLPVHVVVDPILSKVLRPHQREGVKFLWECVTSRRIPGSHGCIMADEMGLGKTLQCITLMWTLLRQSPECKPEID
Procedure: Specifically, N-RAD54-F1, C-RAD54-F1, BLM-F1 and BLM-F2 were transfected in HEK293T. Forty-eight hours post-transfection, Renilla luciferase-based PCA were carried out with the indicated combination of the expressed proteins. The experiment was repeated three times. Mean±S.D.
Using the Renilla luciferase-based protein complementation assay described earlier, 1280 FDA/EMA approved small molecules present in Prestwick chemical library were screened for their ability to disrupt BLM-RAD54 interaction. Each of the small molecules was incubated with HEK293T cells expressing BLM-F2 and N-RAD54-F1. Compared to cells expressing only BLM-F2 and N-RAD54-F1, the decrease in Renilla luciferase intensity in presence of each small molecule was monitored. Percentage disruption of the interaction between BLM F2 and N-RAD54 F1 was plotted in form of heatmap. The disruption of the BLM-RAD54 interaction was determined by a decrease in the Renilla luciferase activity as compared to control untreated cells.
The percentage disruption of the interaction between BLM F2 and N-RAD54 F1 was plotted as a non-linear regression line. The data was from three independent experiments.
Renilla Luciferase (Rlu) based Protein complementation assay was carried out as described in (Stefan et al., 2007). For preliminary screening of the Prestwick Chemical Library (containing 1280 FDA/EMA approved small molecules), HEK293T cells were seeded in the 6-well plates a day prior to the transfection. Next day the cells were transfected by 2 μg each of pcDNA3.1 N-RAD54 F1, pcDNA3.1 C-RAD54 F1, pcDNA3.1 BLM F1, pcDNA3.1 BLM F2 plasmids (alone or in different combinations) using Lipofectamine 2000 (according to the manufacturer's protocol). 36 hours post-transfection, approximately […] cells were seeded in a 96-well plate and incubated at 37° C. for 2 hour with or without 10 μM of the 1280 small molecules present in the library. 10 μM of Coenleterazine h was added into each well and Rluc activity was monitored for the first 10 seconds in Varioskan Microplate Reader (Thermo Fisher Scientific). The validation screen was performed with 17 small molecules at 100 μM, 10 μM, 1 μM, 100 nM, 10 nM and 1 nM concentrations. The percentage reduction in the protein-protein interaction was then calculated as compared to the control wells (without any small molecule).

HCT116 IC60 CPTR cells = test: Soft agar assay; type: cell-based; conditions: 100 nM compound along with 120 nM of CPT
Procedure: Concentrations of CPT used: 0.140 nM, 20 nM, 50 nM, 1000 nM. Concentration of 1-OHP: 0.14 μM, 2 μM, 4 μM, 6 μM, 8 μM. Concentrations of CDDP used: 0.140 μM, 2 μM, 5 μM, 10 μM. The percentage of viable cells were determined by MTT assays (FIG. 12A-12C). The data in FIG. 12A and FIG. 12C is from three independent experiments and the data in FIG. 12B is from nine independent experiments. […] The levels of MRP2, MRP3, MRP5, MXR were quantitated from three independent experiments. […] Specifically, HCT116 IC60 CPTR cells were transfected with the HR substrate for 72 hours and the levels of HR was determined (FIG. 6A). The data is from three independent experiments. […] The number of soft agar colonies in each condition were counted. The data is from three independent experiments.
3000 cells mixed with 0.4% agar and seeded on top of the 6-well plates pre-coated with 0.8% agar. The resistant cells were treated with 120 nM of CPT. Post-incubation cells were seeded. […] The colonies were then counted after 15 days after staining with 0.25% Crystal Violet.

[2] = system: HCT116 IC60 1-OHPR tumors; test: Xenograft model, oxaliplatin resistant cells; type: in vivo, NSG mice; conditions: 1-OHP 2 mg/kg + compound 5 mg/kg, compared to 1-OHP alone
Procedure: Tumors from different groups were excised at the end of the experiments. […] For these experiments, RNA and protein was isolated from tumors obtained at the end point of the xenograft experiment. RNA and the protein levels of MRP2 were determined by RT-qPCR and western blotting with anti-MRP2 antibody. For each group three tumor samples were analyzed (FIG. 6F, 6G). […] The levels of the indicated MDR genes were quantitated from three tumor samples from each group. Mean±S.D. (FIG. 13A). […] The experiment was repeated three times and one representative experiment has been shown (FIG. 13B).
In all cases tumor volume were measured at the indicated days post-injection using the following formula: Tumor volume=½(length×width2).

HT-29 OHP(R) cells = test: Xenograft, HT-29 OHP(R); type: in vivo, NSG mice; conditions: for tumour volume, chemoresistance: CPT + compound
Procedure: Xenografts assays were carried out in NSG mice using HT-29 OHP(R) cells.
RNA (FIG. 16D) or protein (FIG. 16E) levels of the indicated MDR genes were determined by RT-qPCR or immunoblotting with the indicated antibodies.

SMILES	EC50 [1] [nM]	number of soft agar colonies (anchorage independent growth) (HCT116 IC60 CPTR cells)	tumor growth [2]	tumour volume, chemoresistance (HT-29 OHP(R) cells)	RNA and protein levels of the MDR genes in tumours (HT-29 OHP(R) cells; without or with compound treatment)
CC(=O)Nc1nnc(S(N)(=O)=O)s1 [C3, Acetazolamide]	4.2 ± 0.198	decreased anchorage independent cell growth	inhibited the tumor growth	reverses chemoresistance	–
OCCN(CCO)c1nc(N2CCCCC2)c2nc(N(CCO)CCO)nc(N3CCCCC3)c2n1 [C7, Dipyridamole]	6.16 ± 0.297	decreased anchorage independent cell growth	inhibited the tumor growth	reverses chemoresistance	–
CN1CCN(C2=Nc3ccccc3Oc3ccc(Cl)cc32)CC1.O=C(O)CCC(=O)O [C17, Loxapine succinate]	22.9 ± 4.25	decreased anchorage independent cell growth	inhibited the tumor growth	reverses chemoresistance	decreased
